From patent US20210122771A1, “NEW MOLECULAR TWEEZERS AGAINST NEUROLOGICAL DISORDERS AND VIRAL INFECTIONS” (The Regents of the University of California, priority 2018, published 2021)
pIC50, pKd: −log10 of the molar value. Values belong to the compound of their own block, whether it stands above or below them.

Assays:
Full 24-h PK profile = format: in vivo, mice; set-up: Brain AUC: unit not given here
Experimental: Based on the 2-time-point screen results, a full 24-h PK profile has been obtained for compounds 13 and 14. In these experiments, the blood and brain levels were measured at 7 time points—0.3, 0.6, 1, 2, 4, 8, and 24 h. Data for 1 are given for reference.

[1] = PK screening in mice, three routes, two time points; settings: for Blood Concentration, 40 min / Brain Concentration, 40 min / Blood Concentration, 4 h / Brain Concentration, 4 h: analyte: administered compound for 13 and 14, compound 1 in all other cases
Experimental: Each compound was administered to the mice at 2 mg/kg intravenously (I.V.), 2 mg/kg subcutaneously (S.C.), or 10 mg/kg orally (P.O.).

Aβ42-induced toxicity = assay: Inhibition of Aβ42 toxicity in differentiated PC-12 cells (MTT/LDH); format: cell-based, rat; settings: 10 μM Aβ42, differentiated PC-12 cells
Experimental: (§1) The highest concentration tested was 100 μM. Non-toxic compounds then were tested for their ability to inhibit the toxicity of 10 μM Aβ42 in the same assay. The parent compound 1 was used as a control in both cases.

[2] = tested on: differentiated rat pheochromocytoma (PC-12) cells; assay: Self-toxicity in differentiated PC-12 cells (MTT and/or LDH); settings: MTT and/or LDH assays, highest concentration tested 100 μM
Experimental: as §1

[3] = Incubation with simulated gastric fluid, LC-MS/MS; settings: incubation 1 h, LC-MS/MS every 15 min
[4] = Incubation with mouse liver microsomes, LC-MS/MS; format: in vitro ADME; settings: incubation 1 h, LC-MS/MS every 15 min
[5] = Incubation with mouse plasma, LC-MS/MS; settings: incubation 1 h, LC-MS/MS every 15 min
KAA = format: binding; settings: fluorometric titration in aqueous buffer at neutral pH; read-out: Dissociation constant Kd, KAA
RGD = format: binding; settings: fluorometric titration in aqueous buffer at neutral pH; read-out: Dissociation constant Kd, RGD
[6] = I.V., 24-h profile, 7 time points
[7] = P.O., 24-h profile, 7 time points
[8] = S.C., 24-h profile, 7 time points

Structure (SMILES): COc1c2c(c(OP(=O)([O-])O)c3c1C1CC3c3cc4c(cc31)C1CC4c3ccccc31)C1CC2c2cc3c(cc21)C1CC3c2ccccc21.[Na+] [Compound 14]
- BBB penetration relative to compound 1 (Full 24-h PK profile; mouse, in vivo): improved
- Blood AUC (Full 24-h PK profile; mouse, in vivo, iv): 1880
- Blood T1/2 (Full 24-h PK profile; mouse, in vivo, iv): 1.7 h
- Brain AUC (Full 24-h PK profile; mouse, in vivo, iv): 73.2
- Brain T1/2 (Full 24-h PK profile; mouse, in vivo, iv): 0.8 h
- LogBB (Full 24-h PK profile; mouse, in vivo, iv): −1.41
- Blood AUC (Full 24-h PK profile; mouse, in vivo, po): 16.1
- Blood Bioavailability (Full 24-h PK profile; mouse, in vivo, po): 0.9%
- Blood T1/2 (Full 24-h PK profile; mouse, in vivo, po): 4.4 h
- Brain AUC (Full 24-h PK profile; mouse, in vivo, po): 13.7
- Brain T1/2 (Full 24-h PK profile; mouse, in vivo, po): 6.5 h
- LogBB (Full 24-h PK profile; mouse, in vivo, po): −0.07
- oral bioavailability relative to compound 1 (Full 24-h PK profile; mouse, in vivo, po): improved
- Blood AUC (Full 24-h PK profile; mouse, in vivo, sc): 1147
- Blood Bioavailability (Full 24-h PK profile; mouse, in vivo, sc): 61.0%
- Blood T1/2 (Full 24-h PK profile; mouse, in vivo, sc): 14.8 h
- Brain AUC (Full 24-h PK profile; mouse, in vivo, sc): 4.4
- LogBB (Full 24-h PK profile; mouse, in vivo, sc): 0
- Bioavailability, 40 min ([1]; mouse, in vivo, 2 mg/kg): 281.1%
- Bioavailability, 4 h ([1]; mouse, in vivo, 2 mg/kg): 291.2%
- Bioavailability, 40 min ([1]; mouse, in vivo, 10 mg/kg): 3.9%
- Bioavailability, 4 h ([1]; mouse, in vivo, 10 mg/kg): 20.3%
- BBB penetration when administered I.V. (compared to 1) ([1]; mouse, in vivo, iv): substantially increased
- BBB penetration, 40 min ([1]; mouse, in vivo, iv, 2 mg/kg): 10.0%
- BBB penetration, 4 h ([1]; mouse, in vivo, iv, 2 mg/kg): 65.9%
- BBB penetration, 40 mm ([1]; mouse, in vivo, po, 10 mg/kg): 6.1%
- BBB penetration, 4 h ([1]; mouse, in vivo, po, 10 mg/kg): 2.6%
- BBB penetration, 40 min ([1]; mouse, in vivo, sc, 2 mg/kg): 0.1%
- BBB penetration, 4 h ([1]; mouse, in vivo, sc, 2 mg/kg): 0.4%

Structure (SMILES): O=P([O-])(O)Oc1c2c(c(O)c3c1C1CC3c3cc4c(cc31)C1CC4c3ccccc31)C1CC2c2cc3c(cc21)C1CC3c2ccccc21.[Na+] [Compound 13]
- LogBB (Full 24-h PK profile; I.V., 24-h profile): −2.06
- Blood T1/2 (Full 24-h PK profile; [6]): 1.2 h
- Brain AUC (Full 24-h PK profile; [6]): 3.71
- Brain T1/2 (Full 24-h PK profile; [6]): 1.5 h
- Blood AUC (Full 24-h PK profile; I.V., 24-h profile, 7 time points, in ng·h/mL): 423
- Blood Bioavailability (Full 24-h PK profile; P.O., 24-h profile): 21.6%
- LogBB (Full 24-h PK profile; P.O., 24-h profile): −1.84
- Blood T1/2 (Full 24-h PK profile; [7]): 16 h
- Brain AUC (Full 24-h PK profile; [7]): 1.33
- Brain T1/2 (Full 24-h PK profile; [7]): 3.1 h
- Blood AUC (Full 24-h PK profile; P.O., 24-h profile, 7 time points, in ng·h/mL): 91.2
- Blood Bioavailability (Full 24-h PK profile; S.C., 24-h profile): 246.7%
- LogBB (Full 24-h PK profile; S.C., 24-h profile): 3.31
- Blood T1/2 (Full 24-h PK profile; [8]): 11.1 h
- Brain T1/2 (Full 24-h PK profile; [8]): 1.1 h
- Blood AUC (Full 24-h PK profile; S.C., 24-h profile, 7 time points, in ng·h/mL): 1043
- BBB penetration relative to compound 1 (Full 24-h PK profile; full 24-h PK profile): improved
- Blood Concentration, 40 min ([1]; mice, 2 mg/kg I.V., 40 min): 55 ng/mL
- Brain Concentration, 40 min ([1]; mice, 2 mg/kg I.V., 40 min): 3.58 ng/g
- BBB penetration, 40 min ([1]; mice, 2 mg/kg I.V., 40 min, percent ratio between brain and blood concentration): 6.5%
- Blood Concentration, 4 h ([1]; mice, 2 mg/kg I.V., 4 h): 53 ng/mL
- Brain Concentration, 4 h ([1]; mice, 2 mg/kg I.V., 4 h): 1.28 ng/g
- BBB penetration, 4 h ([1]; mice, 2 mg/kg I.V., 4 h, percent ratio between brain and blood concentration): 2.4%
- Blood Concentration, 40 min ([1]; mice, 2 mg/kg S.C., 40 min): 98 ng/mL
- Brain Concentration, 40 min ([1]; mice, 2 mg/kg S.C., 40 min): 1.19 ng/g
- BBB penetration, 40 min ([1]; mice, 2 mg/kg S.C., 40 min, percent ratio between brain and blood concentration): 1.2%
- Bioavailability, 40 min ([1]; mice, 2 mg/kg S.C., 40 min, percent ratio of the I.V. blood concentration): 178.2%
- Blood Concentration, 4 h ([1]; mice, 2 mg/kg S.C., 4 h): 50 ng/mL
- Brain Concentration, 4 h ([1]; mice, 2 mg/kg S.C., 4 h): 1.69 ng/g
- BBB penetration, 4 h ([1]; mice, 2 mg/kg S.C., 4 h, percent ratio between brain and blood concentration): 3.4%
- Bioavailability, 4 h ([1]; mice, 2 mg/kg S.C., 4 h, percent ratio of the I.V. blood concentration): 94.3%
- Blood Concentration, 40 min ([1]; mice, 10 mg/kg P.O., 40 min): 0.0 ng/mL
- Brain Concentration, 40 min ([1]; mice, 10 mg/kg P.O., 40 min): 1.79 ng/g
- BBB penetration, 40 mm ([1]; mice, 10 mg/kg P.O., 40 min, percent ratio between brain and blood concentration): 0.0%
- Bioavailability, 40 min ([1]; mice, 10 mg/kg P.O., 40 min, percent ratio of the I.V. blood concentration): 0.0%
- Blood Concentration, 4 h ([1]; mice, 10 mg/kg P.O., 4 h): 0.3 ng/mL
- Brain Concentration, 4 h ([1]; mice, 10 mg/kg P.O., 4 h): 0.26 ng/g
- BBB penetration, 4 h ([1]; mice, 10 mg/kg P.O., 4 h, percent ratio between brain and blood concentration): 100%
- Bioavailability, 4 h ([1]; mice, 10 mg/kg P.O., 4 h, percent ratio of the I.V. blood concentration): 0.5%
- protective effect against Aβ42-induced toxicity compared to 1 (Aβ42-induced toxicity): higher protective effect
- pIC50 (Aβ42-induced toxicity; LDH assay, read-out: Inhibition of Aβ42 toxicity, IC50 (LDH)): 4.80
- Self-toxicity [2]: Non-toxic

- hydrolysis in simulated gastric fluid [3]: hydrolyzed quantitatively
- hydrolysis in mouse liver microsomes [4]: hydrolyzed quantitatively
- hydrolysis in mouse plasma [5]: hydrolyzed quantitatively
Structure (SMILES): O=C(O)Cc1ccccc1Nc1c(Cl)cccc1Cl [diclofenac]

Structure (SMILES): C#CCCOP(=O)(O)Oc1c2c(c(OP(=O)(O)O)c3c1C1CC3c3cc4c(cc31)C1CC4c3ccccc31)C1CC2c2cc3c(cc21)C1CC3c2ccccc21 [Compound 12]
- pKd (KAA): 4.70
- pKd (RGD): 4.22
